Measurements: patent US8809352B2, “Sulfonamides as inhibitors of Bcl-2 family proteins for the treatments of cancer” (Novartis AG, priority 2009, dated 2014)

Target: BCL2 (Homo sapiens, UniProt P10415)
Test: Biacore SPR solution inhibition assay of BCL-2 binding to peptide derivatized sensor surfaces
Conditions: SPR competition; 56 nM BCL2 pre-equilibrated with compound one hour; biotinylated BAK, BAD and NOXA peptide surfaces; 25° C.
Excerpt: The present method includes utility of a Surface plasmon resonance (SPR)-based biosensor (Biacore™ GE Healthcare, Uppsala, Sweden) to characterize BCL-2 inhibitors.
Biacore™ utilizes the phenomenon of surface plasmon resonance (SPR) to detect and measure binding interactions. In a typical Biacore experiment, one of the interacting molecules (ligand) is immobilized on a flexible dextran matrix while the interacting partner (analyte) is allowed to flow across that surface. A binding interaction results in an increase in mass on the sensor surface and a corresponding direct change in the refractive index of the medium in the vicinity of the sensor surface. Changes in refractive index or signal are recorded in resonance units (R.U.) Signal changes due to association and dissociation of complexes are monitored in a non-invasive manner, continuously and in real-time, the results of which are reported in the form of a sensorgram. The SPR assay is configured to examine solution inhibition of BCL-2 binding to peptide derivatized sensor surfaces to generate […] values as a measure of inhibitor potency.
Biacore™ A100 (GE Healthcare, Uppsala, Sweden) was used to conduct all experiments reported herein. Sensor surface preparation and all interaction analyses experiments were performed at 25° C. Reagents were purchased from GE Healthcare. Running buffer containing 10 mM Hepes, pH7.4, 150 mM sodium chloride, 1.25 mM Dithiothreitol, 3% Dimethyl sulfoxide and 0.05% polysorbate 20 were utilized throughout all analyses.
Biotinylated BAK, BAD and NOXA peptides were diluted to 10 nM in running buffer and captured onto a sensor surface pre-derivatized with streptavidin (sensor chip SA) to peptide surface densities in the range 50-100 R.U. Peptide captured surfaces were blocked with 500 μM PEO2-Biotin.
Interaction analyses were performed by first equilibrating each sample within a 6 point three fold compound dilution series in the range 16 μM to 0.004 nM with 56 nM BCL2 for one hour during instrument start-up procedures. Protein compound mixtures were then injected over each peptide surface in parallel for 60 seconds at a flow-rate of 30 μL/min. 56 nM BCL2 control samples were also prepared and run at regular intervals during the assay. Surface regeneration was performed at the end of each analysis cycle by two 30 second injections of 10 mM Glycine, pH 2.5, 1M Sodium Chloride, 0.05% polysorbate 20. Samples and control compound samples were run in duplicate and controls are also run at regular intervals during the assay to monitor surface and assay performance.
Data analyses are carried out using Biacore™ A100 evaluation software v1.1 to validate assay quality. Binding level report points were used relative to BCL2 control samples to calculate % inhibition values for each compound protein mixture.

Chain of BCL2 (P10415 whole entry): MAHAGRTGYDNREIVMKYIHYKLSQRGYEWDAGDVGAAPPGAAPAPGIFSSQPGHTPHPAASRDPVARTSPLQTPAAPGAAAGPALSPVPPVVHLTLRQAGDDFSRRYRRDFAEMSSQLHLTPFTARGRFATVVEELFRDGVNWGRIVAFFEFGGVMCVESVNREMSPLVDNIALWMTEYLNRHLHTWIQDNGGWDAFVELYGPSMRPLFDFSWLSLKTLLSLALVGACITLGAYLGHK

| IC50 | SMILES |
| --- | --- |
| 62 nM | C[C@H]1CC(N2CCc3c(ncnc3NS(=O)(=O)c3ccc(N[C@H](CCN(C)C)CSc4ccccc4)c([N+](=O)[O-])c3)C2)CCN1Cc1ccccc1-c1ccc(Cl)cc1 (mixture of isomers) [Example 3] |
| 22 nM | C[C@H]1CC(N2CCc3c(ncnc3NS(=O)(=O)c3ccc(N[C@H](CCN(C)C)CSc4ccccc4)c(S(=O)(=O)C(F)(F)F)c3)C2)CCN1Cc1ccccc1-c1ccc(Cl)cc1 (mixture of isomers) [Example 4, N-(7-((2S)-1-((4′-chlorobiphenyl-2-yl)methyl)-2-methylpiperidin-4-yl)-5,6,7,8-tetrahydropyrido[3,4-d]pyrimidin-4-yl)-4-((R)-4-(dimethylamino)-1-(phenylthio)butan-2-ylamino)-3-(trifluoromethylsulfonyl)benzenesulfonamide] |
| 63 nM | COC1(Cc2ccccc2-c2ccc(Cl)cc2)CCC(N2CCc3c(ncnc3NS(=O)(=O)c3ccc(N[C@H](CCN(C)C)CSc4ccccc4)c(S(=O)(=O)C(F)(F)F)c3)C2)CC1 (mixture of isomers) [Example 60, (R)-N-(7-(4-((4′-chlorobiphenyl-2-yl)methyl)-4-methoxycyclohexyl)-5,6,7,8-tetrahydropyrido[3,4-d]pyrimidin-4-yl)-4-(4-(dimethylamino)-1-(phenylthio)butan-2-ylamino)-3-(trifluoromethylsulfonyl)benzenesulfonamide] |
| 70 nM | CN(C)CC[C@H](CSc1ccccc1)Nc1ccc(S(=O)(=O)Nc2ncnc3c2CCN(C2CCC(O)(Cc4ccccc4-c4ccc(Cl)cc4)CC2)C3)cc1S(=O)(=O)C(F)(F)F (mixture of isomers) [Example 64, (R)-N-(7-(4-((4′-chlorobiphenyl-2-yl)methyl)-4-hydroxycyclohexyl)-5,6,7,8-tetrahydropyrido[3,4-d]pyrimidin-4-yl)-4-(4-(dimethylamino)-1-(phenylthio)butan-2-ylamino)-3-(trifluoromethylsulfonyl)benzenesulfonamide] |
| 353 nM | CC1Cc2c(ncnc2NS(=O)(=O)c2ccc(N[C@H](CCN(C)C)CSc3ccccc3)c(S(=O)(=O)C(F)(F)F)c2)CN1C1CCN(Cc2ccccc2-c2ccc(Cl)cc2)CC1 (stereo in doubt) [Example 48, N—[(S)-7-[1-(4′-Chloro-biphenyl-2-ylmethyl)-piperidin-4-yl]-6-methyl-5,6,7,8-tetrahydro-pyrido[3,4-d]pyrimidin-4-yl]-4-((R)-3-dimethylamino-1-phenylsulfanylmethyl-propylamino)-3 trifluoromethanesulfonyl-benzene sulfonamide] |
| 33 nM | CC1Cc2c(ncnc2NS(=O)(=O)c2ccc(N[C@H](CCN(C)C)CSc3ccccc3)c(S(=O)(=O)C(F)(F)F)c2)CN1C1CCN(Cc2ccccc2-c2ccc(Cl)cc2)CC1 (stereo in doubt) [Example 49, N-{(R)-7-[1-(4′-Chloro-biphenyl-2-ylmethyl)-piperidin-4-yl]-6-methyl-5,6,7,8-tetrahydro-pyrido[3,4-d]pyrimidin-4-yl}-4-((R)-3-dimethylamino-1-phenylsulfanylmethyl-propylamino)-3-trifluoromethanesulfonyl-benzenesulfonamide] |
| 100 nM | CN(C)CC[C@H](CSc1ccccc1)Nc1ccc(S(=O)(=O)Nc2ncnc3c2CCN(C2CCN(Cc4ccccc4-c4ccc(Cl)cc4)CC2)C3)cc1[N+](=O)[O-] [Example 1, N-{7-[1-(4′-Chloro-biphenyl-2-ylmethyl)-piperidin-4-yl]-5,6,7,8-tetrahydro-pyrido[3,4-d]pyrimidin-4-yl}-4-((R)-3-dimethylamino-1-phenylsulfanylmethyl-propylamino)-3-nitro-benzenesulfonamide] |
| 31 nM | CN(C)CC[C@H](CSc1ccccc1)Nc1ccc(S(=O)(=O)Nc2ncnc3c2CCN(C2CCN(CC4=C(c5ccc(Cl)cc5)CCC(C)(C)C4)CC2)C3)cc1[N+](=O)[O-] [Example 2] |
| 25 nM | CN(C)CC[C@H](CSc1ccccc1)Nc1ccc(S(=O)(=O)Nc2ncnc3c2CCN(C2CCN(Cc4ccccc4-c4ccc(F)cc4)CC2)C3)cc1S(=O)(=O)C(F)(F)F [Example 5, (R)-4-(4-(dimethylamino)-1-(phenylthio)butan-2-ylamino)-N-(7-(1-((4′-fluorobiphenyl-2-yl)methyl)piperidin-4-yl)-5,6,7,8-tetrahydropyrido[3,4-d]pyrimidin-4-yl)-3-(trifluoromethylsulfonyl)benzenesulfonamide] |
| 19 nM | CN(C)CC[C@H](CSc1ccccc1)Nc1ccc(S(=O)(=O)Nc2ncnc3c2CCN(C2CCN(Cc4ccccc4-c4ccc(Br)cc4)CC2)C3)cc1S(=O)(=O)C(F)(F)F [Example 6, (R)-N-(7-(1-((4′-bromobiphenyl-2-yl)methyl)piperidin-4-yl)-5,6,7,8-tetrahydropyrido[3,4-d]pyrimidin-4-yl)-4-(4-(dimethylamino)-1-(phenylthio)butan-2-ylamino)-3-(trifluoromethylsulfonyl)benzenesulfonamide] |
| 506 nM | CN(C)CC[C@H](CSc1ccccc1)Nc1ccc(S(=O)(=O)Nc2ncnc3c2CCN(C2CCN(Cc4ccccc4Br)CC2)C3)cc1S(=O)(=O)C(F)(F)F [Example 7, (R)-N-(7-(1-(2-bromobenzyl)piperidin-4-yl)-5,6,7,8-tetrahydropyrido[3,4-d]pyrimidin-4-yl)-4-(4-(dimethylamino)-1-(phenylthio)butan-2-ylamino)-3-(trifluoromethylsulfonyl)benzenesulfonamide] |
| 76 nM | CC1(C)CCC(c2ccc(Cl)cc2)=C(CN2CCC(N3CCc4c(ncnc4NS(=O)(=O)c4ccc(N[C@H](CCN5CCOCC5)CSc5ccccc5)c(S(=O)(=O)C(F)(F)F)c4)C3)CC2)C1 [Example 8] |
| 144 nM | O=S(=O)(Nc1ncnc2c1CCN(C1CCN(Cc3ccccc3-c3ccc(Cl)cc3)CC1)C2)c1ccc(N[C@H](CCN2CCOCC2)CSc2ccccc2)c(S(=O)(=O)C(F)(F)F)c1 [Example 9, (R)-N-(7-(1((4′-chlorobiphenyl-2-yl)methyl)piperidin-4-yl)-5,6,7,8-tetrahydropyrido[3,4-d]pyrimidin-4-yl)-4-(4-morpholino-1-(phenylthio)butan-2-ylamino)-3-(trifluoromethylsulfonyl)benzenesulfonamide] |
| 31 nM | CN(C)CC[C@H](CSc1ccccc1)Nc1ccc(S(=O)(=O)Nc2ncnc3c2CCN(C2CCN(CC4=C(c5ccc(Cl)cc5)CCC(C)(C)C4)CC2)C3)cc1S(=O)(=O)C(F)(F)F [Example 10, (R)-N-(7-(1-((2-(4-chlorophenyl)-5,5-dimethylcyclohex-1-enyl)methyl)piperidin-4-yl)-5,6,7,8-tetrahydropyrido[3,4-d]pyrimidin-4-yl)-4-(4-(dimethylamino)-1-(phenylthio)butan-2-ylamino)-3-(trifluoromethylsulfonyl)benzenesulfonamide] |
| 20 nM | CN(C)CC[C@H](CSc1ccccc1)Nc1ccc(S(=O)(=O)Nc2ncnc3c2CCN(C2CCN(Cc4ccccc4-c4ccc(Cl)cc4)CC2)C3)cc1S(=O)(=O)C(F)(F)F [Example 11, (R)-N-(7-(1((4′-chlorobiphenyl-2-yl)methyl)piperidin-4-yl)-5,6,7,8-tetrahydropyrido[3,4-d]pyrimidin-4-yl)-4-(4-(dimethylamino)-1-(phenylthio)butan-2-ylamino)-3-(trifluoromethylsulfonyl)benzenesulfonamide] |
| 3060 nM | CN(C)CC[C@H](CSc1ccccc1)Nc1c(F)cc(S(=O)(=O)Nc2ncnc3c2CCN(C2CCN(Cc4ccccc4-c4ccc(Cl)cc4)CC2)C3)cc1F [Example 12, (R)-N-(7-(1-((4′-chlorobiphenyl-2-yl)methyl)piperidin-4-yl)-5,6,7,8-tetrahydropyrido[3,4-d]pyrimidin-4-yl)-4-(4-(dimethylamino)-1-(phenylthio)butan-2-ylamino)-3,5-difluorobenzenesulfonamide] |
| 502 nM | CC[C@H](CSc1ccccc1)Nc1ccc(S(=O)(=O)Nc2ncnc3c2CCN(C2CCN(Cc4ccccc4-c4ccc(Cl)cc4)CC2)C3)cc1S(=O)(=O)C(F)(F)F [Example 13] |
| 757 nM | CC(=O)N(CCSc1ccccc1)c1ccc(S(=O)(=O)Nc2ncnc3c2CCN(C2CCN(Cc4cc(F)ccc4-c4ccc(Cl)cc4)CC2)C3)cc1S(=O)(=O)C(F)(F)F [Example 15] |
